Target: Acetylcholinesterase (Homo sapiens, UniProt P22303)
Test: Inhibition of human acetylcholinesterase using ATCI/DTNB as substrate preincubated for 30 mins followed by substrate addition measured for 60 mins by Ellman method; call rule not given here

Sequence of Acetylcholinesterase (P22303 whole entry): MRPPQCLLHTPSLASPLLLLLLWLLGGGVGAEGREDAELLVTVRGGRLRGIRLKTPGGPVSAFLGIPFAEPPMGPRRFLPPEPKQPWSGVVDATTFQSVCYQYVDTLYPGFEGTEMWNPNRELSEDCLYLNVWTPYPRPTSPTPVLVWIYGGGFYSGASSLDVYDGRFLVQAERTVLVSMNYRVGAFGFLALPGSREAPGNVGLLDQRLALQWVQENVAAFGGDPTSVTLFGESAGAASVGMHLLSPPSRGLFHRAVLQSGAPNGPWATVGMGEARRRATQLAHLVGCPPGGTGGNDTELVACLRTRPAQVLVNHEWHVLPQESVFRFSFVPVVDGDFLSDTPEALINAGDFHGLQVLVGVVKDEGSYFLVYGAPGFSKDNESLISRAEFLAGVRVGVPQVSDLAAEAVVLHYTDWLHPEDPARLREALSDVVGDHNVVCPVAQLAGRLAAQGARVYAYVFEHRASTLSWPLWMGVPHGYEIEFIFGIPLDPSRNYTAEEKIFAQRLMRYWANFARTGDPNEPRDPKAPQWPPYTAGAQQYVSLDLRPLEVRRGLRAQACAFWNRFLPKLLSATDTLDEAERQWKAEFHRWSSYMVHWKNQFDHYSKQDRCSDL

SMILES	IC50 (read-out: pIC50 (converted)) [µM]	also measured
COC(=O)C1=C(Nc2ccc(F)cc2)C[C@@H](c2ccc(F)cc2)N(c2ccc(F)cc2)[C@@H]1c1ccc(F)cc1	3.2	–
COC(=O)C1=C(Nc2ccc(Cl)cc2)C[C@@H](c2ccc(F)cc2)N(c2ccc(Cl)cc2)[C@@H]1c1ccc(F)cc1	0.71	–
CCOC(=O)C1=C(Nc2ccccc2)C[C@@H](c2ccccc2)N(c2ccccc2)[C@@H]1c1ccccc1	2.95	–
CCOC(=O)C1=C(Nc2ccc(Cl)cc2)C[C@@H](c2ccccc2)N(c2ccc(Cl)cc2)[C@@H]1c1ccccc1	4.6	–
CCOC(=O)C1=C(Nc2ccccc2)C[C@@H](c2ccc(C)cc2)N(c2ccccc2)[C@@H]1c1ccc(C)cc1	5.58	–
CCOC(=O)C1=C(Nc2ccc(C)cc2)C[C@@H](c2ccc(Cl)cc2)N(c2ccc(C)cc2)[C@@H]1c1ccc(Cl)cc1	5.4	–
COC(=O)C1=C(Nc2ccc(Br)cc2)C[C@@H](c2ccc(OC)cc2)N(c2ccc(Br)cc2)[C@@H]1c1ccc(OC)cc1	2.16	–
CCOC(=O)C1=C(Nc2ccc(OC)cc2)C[C@@H](c2ccc(C)cc2)N(c2ccc(OC)cc2)[C@@H]1c1ccc(C)cc1	4.98	–
CCOC(=O)C1=C(Nc2ccc(OC)cc2)C[C@@H](c2ccccc2)N(c2ccc(OC)cc2)[C@@H]1c1ccccc1	2.25	–
COC(=O)C1=C(Nc2ccc(F)cc2)C[C@@H](c2ccccc2)N(c2ccc(F)cc2)[C@@H]1c1ccccc1	15.1	–
COC(=O)C1=C(Nc2ccccc2)C[C@@H](c2ccccc2[N+](=O)[O-])N(c2ccccc2)[C@@H]1c1ccccc1[N+](=O)[O-]	–	IC50: Not Active
COC(=O)C1=C(Nc2ccc(Br)cc2)C[C@@H](c2ccc(Cl)cc2)N(c2ccc(Br)cc2)[C@@H]1c1ccc(Cl)cc1	0.879	–
COC(=O)C1=C(Nc2ccccc2)C[C@@H](c2ccccc2)N(c2ccccc2)[C@@H]1c1ccccc1	6.52	–
CC(C)(C)OC(=O)C1=C(Nc2ccccc2)C[C@@H](c2ccccc2)N(c2ccccc2)[C@@H]1c1ccccc1	2.79	–
COC(=O)C1=C(Nc2ccc(OC)cc2)C[C@@H](c2ccc(C)cc2)N(c2ccc(OC)cc2)[C@@H]1c1ccc(C)cc1	5.83	–
CCOC(=O)C1=C(Nc2ccccc2)C[C@@H](c2ccc(F)cc2)N(c2ccccc2)[C@@H]1c1ccc(F)cc1	0.39	–
CCOC(=O)C1=C(Nc2ccc(Cl)cc2)C[C@@H](c2ccc(OC)cc2)N(c2ccc(Cl)cc2)[C@@H]1c1ccc(OC)cc1	0.38	–
COC(=O)C1=C(Nc2ccccc2)C[C@@H](c2ccc3c(c2)OCO3)N(c2ccccc2)[C@@H]1c1ccc2c(c1)OCO2	0.511	IC50 (read-out: IC50): 3270 µM
CCOC(=O)C1=C(Nc2ccc(C)cc2)C[C@@H](c2ccccc2)N(c2ccc(C)cc2)[C@@H]1c1ccccc1	5.18	–
COC(=O)C1=C(Nc2ccccc2)C[C@@H](c2ccc(Cl)cc2)N(c2ccccc2)[C@@H]1c1ccc(Cl)cc1	0.879	–
COC(=O)C1=C(Nc2ccc(C)cc2)C[C@@H](c2ccc(C)cc2)N(c2ccc(C)cc2)[C@@H]1c1ccc(C)cc1	6.78	–
CCOC(=O)C1=C(Nc2ccc(F)cc2)C[C@@H](c2ccc(Cl)cc2)N(c2ccc(F)cc2)[C@@H]1c1ccc(Cl)cc1	0.55	–
COC(=O)C1=C(Nc2ccc(Br)cc2)C[C@@H](c2ccc(C)cc2)N(c2ccc(Br)cc2)[C@@H]1c1ccc(C)cc1	2.48	–
COC(=O)C1=C(Nc2ccccc2)C[C@@H](c2ccc(C)cc2)N(c2ccccc2)[C@@H]1c1ccc(C)cc1	5.73	–
COC(=O)C1=C(Nc2ccc(Cl)cc2)C[C@@H](c2ccc(C)cc2)N(c2ccc(Cl)cc2)[C@@H]1c1ccc(C)cc1	2.15	–

Reference: ChEMBL document CHEMBL3596196, “In vitro evaluation and in silico screening of synthetic acetylcholinesterase inhibitors bearing functionalized piperidine pharmacophores” (Bioorg Med Chem, 2015)
